Test results reported in article PMC10712727, “Safety, Tolerability, and Pharmacokinetics of Senaparib, a Novel PARP1/2 Inhibitor, in Chinese Patients With Advanced Solid Tumors: A Phase I Trial” (The Oncologist, 2023).

Test: Plasma pharmacokinetics in continuous dosing period, cycle 1 day 15 steady state (HPLC-MS/MS)
Format: in vivo, human
Settings: dose range of 2-120 mg

Q: Which Dose linearity does the source give for `O=C(c1cc(Cn2c(=O)[nH]c(=O)c3c(F)cccc32)ccc1F)N1CCN(c2ncccn2)CC1` [Senaparib] here?
A: The Dose linearity was “Dose linearity was not observed”.
